Converted amounts (≈) assume the structure as drawn.

In one test the test system is S. aureus Smith. Nature of the test: Acute S. aureus infection model in mice (survival). The test is classed as in vivo. As for the experimental part:
The efficacy of lysostaphin was compared to that of vancomycin in an acute infection model in mice. S. aureus Smith was cultured overnight, with moderate agitation, in Veal Infusion broth (Difco) and diluted in broth containing 5% hog gastric mucin (Difco). Male Swiss-Webster mice (Taconic Farms, Germantown, N.Y.) weighing approximately 20 grams were infected intraperitoneally with 10^5-10^6 viable cells, approximately tenfold the inoculum that reproducibly killed all untreated animals within 48 h. There were six mice in each treatment group. Lysostaphin was administered intravenously (in 0.1 ml 5% dextrose for injection) or subcutaneously (in 0.2 ml), within 10 min of infection. Vancomycin was administered subcutaneously.

The test system of test [1] is S. aureus strain AG461. The test can be described thus: Time-kill experiment, S. aureus AG461 (FIG. 1). The test is classed as cell-based. The following applies: 2 and 16 μg/ml (1x and 8x MIC), three hours of contact. Here is the method:
The bactericidal activity of lysostaphin against S. aureus was also studied by means of time-kill experiments. In one experiment of this type, S. aureus strain AG461, a methicillin-resistant clinical isolate from Genoa, Italy, was inoculated into Mueller-Hinton broth (Difco) and grown at 37° C. with gentle shaking until it reached approximately 10^8 viable cells per ml (CFU/ml), as estimated from the absorbance of the culture at 600 nm. The culture was then diluted with fresh broth to approximately 10^6 CFU/ml and 5 ml aliquots were placed in several different flasks for exposure to different concentrations of antibacterial agents. Incubation was continued, with gentle shaking, at 37° C., and samples were withdrawn at intervals for determination of viable cells. Serial 10-fold dilutions of the samples were made in sterile saline (0.9% NaCl in distilled water) and duplicate 0.1 ml aliquots of appropriate dilutions were plated on Tryptic Soy agar plates (Remel) using the agar inclusion method. (In this method, the aliquot to be plated is added to 2.5 ml of top agar, which is mixed and poured onto a plate. Top agar consisted of molten Tryptic Soy agar (Difco) diluted 2-fold with Difco Tryptic Soy broth to give a final agar concentration of 0.75%, w/v.) The plates were incubated for 24-48 hours at 36° C. and the colonies were counted manually. […]

Test [2] relates to S. aureus strain AG461. The following applies: strain AG461 (methicillin-resistant clinical isolate).
Text: The different concentrations of lysostaphin and vancomycin used were one and eight times their respective MIC.
Test [3] has as its system methicillin-resistant VISA strain of S. aureus. Nature of the test: Vancomycin MIC for the laboratory-selected VISA strain. The following applies: Staphylococcus aureus, variant strain selected after cycles of growth in glycopeptide-containing medium. It is filed as cell-based. Here is the method: Strains that are both methicillin-resistant and resistant to vancomycin are a newly emerging problem. A variant strain of this type was selected after cycles of growth in glycopeptide-containing medium. The vancomycin MIC for the resulting strain was 8 μg/ml, as reported also for naturally occurring VISA strains isolated from patients in the U.S. and Japan. (Centers for Disease Control and Prevention, Morbidity and Mortality Weekly Report 1997; 46:813-815). Staphylococcal isolates are considered to be susceptible to vancomycin if the MIC is less than or equal to 4 μg/ml and to be completely resistant if the MIC is greater than or equal to 32 μg/ml (National Committee for Clinical Laboratory Standards, 1993. Approved Standard M2-A5. Performance standards for antimicrobial disk susceptibility tests—Fifth edition. National Committee for Clinical Laboratory Standards, Villanova, Pa.)

The subject of the next test is S. aureus. Nature of the test: MIC by broth macrodilution in glass tubes. The test is classed as cell-based. Here is the method: In this experiment, MICs were determined by broth macrodilution in 1 ml final volumes in glass tubes. Otherwise, the methodology was as described above.

As a reminder, the MIC is the smallest concentration in the dilution series that meets the test's criterion for growth inhibition. Read a low MIC as greater potency. Consider `CN[C@H](CC(C)C)C(=O)N[C@H]1C(=O)N[C@@H](CC(N)=O)C(=O)N[C@H]2C(=O)N[C@H]3C(=O)N[C@H](C(=O)N[C@H](C(=O)O)c4cc(O)cc(O)c4-c4cc3ccc4O)[C@H](O)c3ccc(c(Cl)c3)Oc3cc2cc(c3O[C@@H]2O[C@H](CO)[C@@H](O)[C@H](O)[C@H]2O[C@H]2C[C@](C)(N)[C@H](O)[C@H](C)O2)Oc2ccc(cc2Cl)[C@H]1O` [vancomycin, reference compound], for which the “% survival” value with S. aureus Smith (5 mg/kg sc) turned out to be 100%. Moreover, in the test on S. aureus strain AG461 [1], the “bactericidal action (killing of the bacteria)” value was “very little killing”. Also, in the test on S. aureus strain AG461 [2], the “MIC (lower time-kill concentration stated to be one times MIC)” value was determined as 2 µg/mL (≈ 1.38 µM). In addition, the lowest concentration to inhibit growth in test [3] (MIC) was 8 µg/mL (≈ 5.52 µM).
With “Gly218Asp: lysostaphin variant with a single change, glycine to aspartic acid, at position 218 of the mature protein”, the MIC entry in the test with S. aureus (strain AG402 (clinical isolate)) was “.06 µg/mL”; in the test on S. aureus (strain AG404 (clinical isolate, methicillin-resistant)), “.06 µg/mL”; against S. aureus (strain AG414), “.03 µg/mL”; in the test on S. aureus (strain AG417) it was “.03 µg/mL”. Besides, the “% survival” value in the test on S. aureus Smith (Table 4 experiment, dose 0.08 mg/kg) turned out to be 0%; in the test with S. aureus Smith (Table 4 experiment, dose 0.16 mg/kg), 17%; in the test with S. aureus Smith (Table 4 experiment, dose 0.31 mg/kg), 33%; with S. aureus Smith (Table 4 experiment, dose 0.63 mg/kg) it was 83%.

These data come from US20020006406A1, “METHOD FOR THE TREATMENT OF STAPHYLOCOCCAL DISEASE” (priority 1997, published 2002).
